# Measured values taken from ChEMBL document CHEMBL1201862, “PubChem BioAssay data set” (2004).
# Active and inactive are the calls of the source.
# Key:
# Streptococcus = experiment: Group A Streptococcus viability loss, dose response, counter-screen for streptokinase expression inhibitor project, luminescence, BacTiterGlo (AID 1915); format: functional, organism-based;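 further: potency for reduction of bacterial viability or growth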
# [1] = C. albicans growth with fluconazole, confirmation, fluorescence, retest (AID 2467); format: functional, cell-based
# [2] = tested on: Streptococcus sp. 'group A'; experiment: growth inhibition of control SK(-) GAS strain, dose response, counter-screen for streptokinase expression inhibitor project, luminescence, kanamycin, BacTiterGlo, confirmation (AID 1900); format: functional, organism-based
# [3] = molecular target: Serine/threonine-protein phosphatase (Candida dubliniensis (strain CD36 / CBS 7987 / NCPF 3949 / NRRLY-17841) (Yeast), UniProt B9W6M3); experiment: calcineurin pathway inhibitors in yeast reporter, dose response, S. cerevisiae, CDRE-lacZ, luminescence, secondary (AID 2388); format: functional, cell-based;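 further: yeast reporter cells carrying a calcineurin-responsive lacZ construct stimulated with calcium chloride; luminescent beta-galactosidase reporter signal in whole cells rather than isolated phosphatase activity; potency for inhibition where a drop in reporter signal means calcineurin blockade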
# Vero [4] = experiment: cells; format: functional; details: Chlorocebus sabaeus
# [5] = NIH-3T3 fibroblast cytotoxicity, dose response, cytotoxicity control, cell-based, fluorescence, Alamar Blue, secondary assay (AID 2327); format: functional;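 further: NIH-3T3 mouse fibroblasts cultured with fluconazole at 8 µg/mL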
# [6] = molecular target: ATP-dependent molecular chaperone HSP82 (Candida albicans (strain WO-1) (Yeast), UniProt C4YTQ8); experiment: loss of DOC-induced GRE-beta-galactosidase reporter signal, dose response, Hsp90 inhibitor project, S. cerevisiae, luminescence (AID 2400); format: functional, cell-based;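 further: beta-galactosidase luminescence from glucocorticoid response element reporter as proxy for Hsp90 function; inhibitor potency where signal loss means Hsp90 inhibition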
# [7] = molecular target: Dual specificity tyrosine-phosphorylation-regulated kinase 1A (Rattus norvegicus, UniProt Q63470); format: biochemical, Homo sapiens
# Genome polyprotein = Genome polyprotein (dengue virus type 2, UniProt P29990); experiment: Dengue-2 NS5 methyltransferase inhibitors, primary screen, biochemical, confirmation dose response (AID 588689); format: functional
# Vero [8] = experiment: Vero cell cytotoxicity, cytotoxicity control for flavivirus capping enzyme inhibitors (AID 588742); format: functional; details: Chlorocebus sabaeus
# HeLa = experiment: HeLa cell cytotoxicity, dose response, cytotoxicity control for MITF activator project, CellTiter-Glo luminescence, cherry-pick samples (AID 540259); format: functional, cell-based; details: Homo sapiens
# Escherichia coli = experiment: microbe, parasite or virus in culture
# [9] = molecular target: Beta-2 adrenergic receptor (Homo sapiens, UniProt P07550); experiment: beta2AR agonists driving receptor internalization, dose response, cell-based, FAP fluorogen, flow cytometry, cherry pick 1 (AID 588763); format: functional
# [10] = Counterscreen for activators of the function of SWI/SNF related, matrix associated, actin dependent regulator of chromatin, subfamily a, member 2 (SMARCA2, BRM): Luminescence-based cell-based high throughput dose response assay to identify non-selective compounds using the VP16 reporter assay.; format: functional
# [11] = molecular target: SWI/SNF-related matrix-associated actin-dependent regulator of chromatin subfamily A member 2 (Homo sapiens, UniProt P51531); experiment: Luminescence-based cell-based high throughput dose response assay to identify activators of the function of SWI/SNF related, matrix associated, actin dependent regulator of chromatin, subfamily a, member 2 (SMARCA2, BRM).; format: functional
# Cysteine protease ATG4B = Cysteine protease ATG4B (Homo sapiens, UniProt Q9Y4P1); format: functional;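 further: Fluorescence-based dose-response confirmation assay measuring inhibition of ATG4B activity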
# Prothrombin = Prothrombin (Homo sapiens, UniProt P00734); experiment: Thrombin 1536 HTS Dose Response Confirmation. [Related pubchem assays: 1046 (Thrombin 1536 HTS; hits were confirmed in this assay)]; format: functional
# Phospholipase A2 = Phospholipase A2 (Homo sapiens, UniProt P04054); format: functional;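 further: confirmatory dose-response counterscreen on phospholipase A2, testing hits that came from an ultra-high-throughput screen for ATG4B inhibitors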
# CAAX prenyl protease 2 = CAAX prenyl protease 2 (Homo sapiens, UniProt Q9Y256); experiment: human Rce1 protease inhibitors, dose response, biochemical, yeast membranes, quenched-peptide fluorescence, cherry-pick (AID 588849)
# Sequence of ATP-dependent molecular chaperone HSP82 (C4YTQ8 whole entry): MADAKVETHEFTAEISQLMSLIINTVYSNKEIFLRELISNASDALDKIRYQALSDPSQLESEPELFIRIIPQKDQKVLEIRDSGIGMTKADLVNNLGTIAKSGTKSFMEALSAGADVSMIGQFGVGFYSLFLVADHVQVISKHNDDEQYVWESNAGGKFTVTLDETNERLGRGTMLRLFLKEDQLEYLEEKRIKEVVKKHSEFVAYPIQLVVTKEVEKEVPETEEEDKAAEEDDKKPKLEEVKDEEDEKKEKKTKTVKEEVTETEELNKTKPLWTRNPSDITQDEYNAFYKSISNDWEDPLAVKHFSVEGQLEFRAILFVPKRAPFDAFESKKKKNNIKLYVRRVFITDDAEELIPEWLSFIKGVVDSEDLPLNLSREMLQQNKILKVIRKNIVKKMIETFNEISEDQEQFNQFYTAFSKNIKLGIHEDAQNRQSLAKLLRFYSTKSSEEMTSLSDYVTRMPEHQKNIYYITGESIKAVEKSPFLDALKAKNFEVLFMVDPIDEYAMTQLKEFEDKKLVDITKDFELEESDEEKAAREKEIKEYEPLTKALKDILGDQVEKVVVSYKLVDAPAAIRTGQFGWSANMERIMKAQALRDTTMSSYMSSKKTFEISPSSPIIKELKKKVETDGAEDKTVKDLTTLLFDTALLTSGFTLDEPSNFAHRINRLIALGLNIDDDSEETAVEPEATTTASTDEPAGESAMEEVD
# Sequence of Beta-2 adrenergic receptor (P07550 whole entry): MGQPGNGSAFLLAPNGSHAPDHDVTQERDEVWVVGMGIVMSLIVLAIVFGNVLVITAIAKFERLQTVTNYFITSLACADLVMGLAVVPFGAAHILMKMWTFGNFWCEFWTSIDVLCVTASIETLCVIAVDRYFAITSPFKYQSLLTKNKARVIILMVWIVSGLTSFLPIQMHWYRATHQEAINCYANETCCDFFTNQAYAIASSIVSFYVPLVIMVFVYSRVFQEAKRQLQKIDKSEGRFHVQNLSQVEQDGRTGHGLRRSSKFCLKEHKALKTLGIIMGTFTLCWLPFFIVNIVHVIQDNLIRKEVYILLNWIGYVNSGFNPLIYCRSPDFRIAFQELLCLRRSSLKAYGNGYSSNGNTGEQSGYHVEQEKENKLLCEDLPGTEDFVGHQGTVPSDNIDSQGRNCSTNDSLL
# Sequence of Genome polyprotein (P29990 2492-3391 limits assumed): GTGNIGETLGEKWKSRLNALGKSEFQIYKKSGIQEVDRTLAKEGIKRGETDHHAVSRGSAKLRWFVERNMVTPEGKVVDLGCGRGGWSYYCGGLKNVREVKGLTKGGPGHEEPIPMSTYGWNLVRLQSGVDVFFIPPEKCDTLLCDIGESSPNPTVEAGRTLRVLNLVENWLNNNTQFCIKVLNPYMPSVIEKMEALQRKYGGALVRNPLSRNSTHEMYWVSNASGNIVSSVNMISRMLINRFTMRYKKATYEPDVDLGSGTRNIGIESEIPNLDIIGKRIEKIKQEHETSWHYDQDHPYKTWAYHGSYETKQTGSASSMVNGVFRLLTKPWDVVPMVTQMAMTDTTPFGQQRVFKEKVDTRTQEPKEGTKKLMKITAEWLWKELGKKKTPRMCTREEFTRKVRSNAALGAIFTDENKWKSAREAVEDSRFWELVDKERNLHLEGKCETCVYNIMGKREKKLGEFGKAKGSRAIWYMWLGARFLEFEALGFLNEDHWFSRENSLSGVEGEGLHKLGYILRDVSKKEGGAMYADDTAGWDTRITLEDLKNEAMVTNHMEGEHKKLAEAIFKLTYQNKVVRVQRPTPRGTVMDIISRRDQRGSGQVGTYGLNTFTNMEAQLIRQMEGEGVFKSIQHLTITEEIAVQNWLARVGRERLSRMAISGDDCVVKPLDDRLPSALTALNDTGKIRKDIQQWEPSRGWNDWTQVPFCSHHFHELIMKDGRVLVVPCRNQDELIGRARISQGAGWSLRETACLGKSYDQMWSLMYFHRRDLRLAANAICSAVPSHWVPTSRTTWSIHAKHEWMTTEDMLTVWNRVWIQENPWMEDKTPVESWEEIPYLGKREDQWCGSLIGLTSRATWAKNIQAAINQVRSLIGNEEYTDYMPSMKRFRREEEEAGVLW
# Sequence of Cysteine protease ATG4B (Q9Y4P1 whole entry): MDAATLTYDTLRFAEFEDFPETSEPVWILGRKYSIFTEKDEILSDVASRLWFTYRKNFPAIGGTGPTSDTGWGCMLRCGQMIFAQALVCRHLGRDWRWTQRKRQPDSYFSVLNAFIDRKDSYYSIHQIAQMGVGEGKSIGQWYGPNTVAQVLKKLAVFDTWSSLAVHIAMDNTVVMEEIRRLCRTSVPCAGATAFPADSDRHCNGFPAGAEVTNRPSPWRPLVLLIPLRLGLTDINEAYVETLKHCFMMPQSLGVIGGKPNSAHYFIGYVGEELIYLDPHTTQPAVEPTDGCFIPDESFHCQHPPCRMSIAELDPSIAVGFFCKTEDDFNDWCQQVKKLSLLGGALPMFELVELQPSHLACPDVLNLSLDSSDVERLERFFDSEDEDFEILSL
# Sequence of SWI/SNF-related matrix-associated actin-dependent regulator of chromatin subfamily A member 2 (P51531 whole entry): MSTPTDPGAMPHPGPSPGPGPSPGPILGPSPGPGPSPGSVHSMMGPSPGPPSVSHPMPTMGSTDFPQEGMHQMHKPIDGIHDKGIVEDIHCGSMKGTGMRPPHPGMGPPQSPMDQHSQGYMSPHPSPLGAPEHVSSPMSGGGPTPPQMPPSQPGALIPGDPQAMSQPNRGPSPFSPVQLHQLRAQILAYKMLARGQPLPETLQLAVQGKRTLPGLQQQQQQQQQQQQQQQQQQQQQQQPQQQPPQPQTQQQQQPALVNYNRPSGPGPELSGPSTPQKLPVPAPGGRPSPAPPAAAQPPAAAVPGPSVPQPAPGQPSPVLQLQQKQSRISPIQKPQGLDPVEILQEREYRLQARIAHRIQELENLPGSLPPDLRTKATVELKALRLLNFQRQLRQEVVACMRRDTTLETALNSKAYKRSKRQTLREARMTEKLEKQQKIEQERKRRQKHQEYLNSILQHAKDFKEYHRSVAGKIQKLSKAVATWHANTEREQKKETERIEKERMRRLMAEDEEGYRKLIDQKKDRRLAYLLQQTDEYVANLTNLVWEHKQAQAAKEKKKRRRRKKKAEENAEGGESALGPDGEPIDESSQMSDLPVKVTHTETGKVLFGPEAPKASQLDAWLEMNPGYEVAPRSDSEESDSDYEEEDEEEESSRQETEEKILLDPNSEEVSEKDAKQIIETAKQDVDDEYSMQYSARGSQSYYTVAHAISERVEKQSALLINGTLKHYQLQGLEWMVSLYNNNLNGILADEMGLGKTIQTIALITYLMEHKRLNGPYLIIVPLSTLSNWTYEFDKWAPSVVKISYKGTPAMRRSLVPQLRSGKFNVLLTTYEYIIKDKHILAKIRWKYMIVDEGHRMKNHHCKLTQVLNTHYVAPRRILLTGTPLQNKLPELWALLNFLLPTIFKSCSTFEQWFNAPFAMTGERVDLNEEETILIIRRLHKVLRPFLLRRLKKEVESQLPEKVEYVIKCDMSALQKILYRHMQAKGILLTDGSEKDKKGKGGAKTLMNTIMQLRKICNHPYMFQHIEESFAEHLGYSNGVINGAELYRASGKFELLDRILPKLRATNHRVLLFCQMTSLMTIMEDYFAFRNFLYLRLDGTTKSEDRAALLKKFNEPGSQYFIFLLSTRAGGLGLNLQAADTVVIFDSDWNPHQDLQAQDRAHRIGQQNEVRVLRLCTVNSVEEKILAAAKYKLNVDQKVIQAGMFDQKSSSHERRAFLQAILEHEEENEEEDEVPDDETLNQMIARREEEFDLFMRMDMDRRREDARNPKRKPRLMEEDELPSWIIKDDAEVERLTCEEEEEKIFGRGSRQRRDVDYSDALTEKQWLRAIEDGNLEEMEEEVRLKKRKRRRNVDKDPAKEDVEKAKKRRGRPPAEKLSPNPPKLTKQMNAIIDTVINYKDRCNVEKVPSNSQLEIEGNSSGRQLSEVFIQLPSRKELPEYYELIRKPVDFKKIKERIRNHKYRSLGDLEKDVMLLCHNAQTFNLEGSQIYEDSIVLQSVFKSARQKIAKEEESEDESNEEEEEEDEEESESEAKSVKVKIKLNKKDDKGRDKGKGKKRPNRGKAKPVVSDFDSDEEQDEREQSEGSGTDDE
# Sequence of Phospholipase A2 (P04054 whole entry): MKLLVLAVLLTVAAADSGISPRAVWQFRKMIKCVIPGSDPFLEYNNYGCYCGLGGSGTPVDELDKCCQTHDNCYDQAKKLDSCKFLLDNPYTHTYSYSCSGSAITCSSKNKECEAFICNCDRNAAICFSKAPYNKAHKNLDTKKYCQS
# Sequence of Serine/threonine-protein phosphatase (B9W6M3 whole entry): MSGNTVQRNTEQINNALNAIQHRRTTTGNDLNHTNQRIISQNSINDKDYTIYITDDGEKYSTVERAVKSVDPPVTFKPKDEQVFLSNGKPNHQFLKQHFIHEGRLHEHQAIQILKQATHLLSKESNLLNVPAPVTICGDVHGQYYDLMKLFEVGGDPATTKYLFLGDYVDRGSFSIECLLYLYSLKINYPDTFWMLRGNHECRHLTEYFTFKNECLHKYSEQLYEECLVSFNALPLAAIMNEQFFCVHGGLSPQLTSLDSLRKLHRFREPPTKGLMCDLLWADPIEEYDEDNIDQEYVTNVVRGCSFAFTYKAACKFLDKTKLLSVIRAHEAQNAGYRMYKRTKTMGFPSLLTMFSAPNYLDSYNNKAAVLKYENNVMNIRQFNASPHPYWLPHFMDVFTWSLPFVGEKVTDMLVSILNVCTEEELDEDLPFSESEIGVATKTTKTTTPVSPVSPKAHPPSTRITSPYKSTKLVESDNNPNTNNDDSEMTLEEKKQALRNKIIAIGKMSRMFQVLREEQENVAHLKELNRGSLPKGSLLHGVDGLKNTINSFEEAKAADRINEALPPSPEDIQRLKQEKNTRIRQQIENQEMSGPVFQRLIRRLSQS
smiles,measurement,setting,value
COc1ccc(C(=O)NC(=S)NNC(=O)c2ccc(C)cc2)cc1,EC50,Streptococcus,6.72 µM (active)
same,EC50,[1],1.12 µM (active)
same,EC50,[2],0.361 µM (active)
same,EC50,[3],> 180 µM (inactive)
same,CC50,Vero [4],> 25 µM (active)
same,EC50,[5],> 150 µM (inactive)
same,EC50,[6],5.92 µM (active)
Cc1sc(NC(=O)c2ccco2)nc1-c1ccccc1,AC50,[7],3.67 µM (active)
O=C(NCC(c1cccs1)N1CCOCC1)c1ccccc1NS(=O)(=O)c1ccc(Cl)c([N+](=O)[O-])c1 (configuration not stated),IC50,Genome polyprotein,> 100 µM (active)
same,CC50,Vero [8],38.8 µM (active)
Cn1c(-c2ncc(F)cc2F)cc2onc(-c3c(F)cccc3Cl)c2c1=O,AC50,HeLa,98 µM (active)
COC(=O)Nc1ccc2c(c1)N(C(=O)CCN1CCOCC1)c1ccccc1S2,AC50,Escherichia coli,50.2 µM (active)
Cc1ccc(NC(=O)C(c2ccc(Cl)cc2)N2CCCCC2)cc1 (configuration not stated),EC50,[9],2.99 µM (active)
Cc1nc(COC(=O)c2c(C)nn(-c3ccccc3)c2C)cs1,EC50,[10],> 91.1 µM (inactive)
same,EC50,[11],> 91.1 µM (inactive)
same,AC50,HeLa,76 µM (active)
CCOC(=O)C1=C(C)c2ccccc2OC1(C(=O)OCC)C(C)C (configuration not stated),AC50,Escherichia coli,379 µM (active)
Cc1oc2ncnc(N)c2c1C,AC50,[7],1.4 µM (active)
O=C(NN=C1CCCCCC1)c1cn(-c2ccccc2)nc1-c1ccccc1,IC50,Cysteine protease ATG4B,13.8 µM (active)
same,IC50,Prothrombin,> 50 µM (not active)
same,IC50,Phospholipase A2,20.8 µM (inactive)
C/C=C(/C)C(=O)O[C@H]1[C@@H](O)c2c(ccc3ccc(=O)oc23)OC1(C)C,AC50,CAAX prenyl protease 2,24.9 µM (active)
